Source: patent US7605272B2, “IGF-1R inhibitor” (Kyowa Hakko Kirin Co., Ltd., priority 2005, dated 2009)
Where a name gives a salt, the structure may show the parent alone. Read-outs that look alike come from different tables or passages of the source.

Legend:
[1] = tested on: KMS-11; test: Cytostatic activity on human multiple myeloma cell line KMS-11 (WST-1); format: cell-based; settings: for inhibition at 1 µM / inhibition at 10 µM: Homo sapiens, KMS-11, 72 h; for inhibition at 1 µM: read-out: cytostatic rate (%) KMS-11 (1 μmol/L); for inhibition at 10 µM: 10 μmol/L, read-out: cytostatic rate (%) KMS-11 (10 μmol/L)
Outline: (§1)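 Cells pre-cultured 24 h at 37 °C, 5% CO2, then exposed 72 h to compound at final 1 or 10 μmol/L (0.1% DMSO). WST-1 added for 2 h, absorbance at 450 nm (ref 690 nm). Cytostatic rate = 100 minus relative growth, with DMSO control as 100% and blank as 0%.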

[2] = molecular target: T1, IGF-1R (Homo sapiens, UniProt P08069); test: IGF-1R inhibitory activity (kinase reaction, time-resolved fluoroimmunoassay); format: biochemical; settings: test compound 10 μmol/L
T1 construct: purchased Upstate Co. 14-465
Outline: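 Compounds were tested at a single 10 μmol/L concentration. Each was incubated with recombinant IGF-1R (200 μg/L), 10 mmol/L ATP, MgCl2/MnCl2 and Na3VO4 (pH 7.5) on immobilized poly(Glu-Tyr) peptide for 30 min at 24° C. Eu-anti-phosphotyrosine time-resolved fluorescence (340/615 nm) gave relative activity against no-compound and no-enzyme wells, reported as % inhibition.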

[3] = tested on: NCI-H929; test: Cytostatic activity on human multiple myeloma cell line NCI-H929 (WST-1); format: cell-based; settings: for inhibition at 1 µM / inhibition at 10 µM: Homo sapiens, NCI-H929, 72 h; for inhibition at 1 µM: read-out: cytostatic rate (%) H929 (1 μmol/L); for inhibition at 10 µM: 10 μmol/L, read-out: cytostatic rate (%) H929 (10 μmol/L)
Outline: as §1

[4] = KMS-11 cells, test compound 1 μmol/L, WST-1
[5] = IGF-1R active recombinant enzyme
[6] = NCI-H929 cells, test compound 1 μmol/L, WST-1

T1 sequence (P08069 959-1367 limits assumed): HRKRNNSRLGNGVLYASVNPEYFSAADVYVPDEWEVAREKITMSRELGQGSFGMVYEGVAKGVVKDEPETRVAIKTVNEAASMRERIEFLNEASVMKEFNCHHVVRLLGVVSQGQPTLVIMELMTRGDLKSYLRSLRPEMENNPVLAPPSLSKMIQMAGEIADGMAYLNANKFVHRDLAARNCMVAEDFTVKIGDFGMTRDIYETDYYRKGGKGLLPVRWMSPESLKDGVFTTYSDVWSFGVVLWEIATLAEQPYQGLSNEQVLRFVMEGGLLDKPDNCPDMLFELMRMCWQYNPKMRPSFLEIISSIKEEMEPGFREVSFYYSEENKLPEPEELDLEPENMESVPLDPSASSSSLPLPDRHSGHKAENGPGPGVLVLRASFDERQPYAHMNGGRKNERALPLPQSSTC

Structure (SMILES)	inhibition at 10 µM [2, 5] [%]	inhibition at 10 µM ([1]; 72 hours) [%]	inhibition at 10 µM ([3]; 72 hours) [%]	inhibition at 1 µM ([1]; 1 μmol/L, 72 hours) [%]	inhibition at 1 µM ([3]; 1 μmol/L, 72 hours) [%]	further results
Cc1ccsc1C(=O)Nc1cc(C(=O)N(C)C2CCN(C)CC2)ccc1/C=C/c1n[nH]c2ccccc12 [Compound 328, (E)-N-{2-[2-(1H-indazol-3-yl)vinyl]-5-[N-methyl-N-(1-methylpiperidin-4-yl)carbamoyl]phenyl}-3-methylthiophene-2-carboxamide]	97.9	–	–	–	–	inhibition at 1 µM [1, 4]: 105%; inhibition at 1 µM [3, 6]: 116%
O=C(Nc1ccccc1/C=C/c1n[nH]c2ccccc12)c1ccc([N+](=O)[O-])o1 [Compound 63, (E)-N-{2-[2-(1H-indazol-3-yl)vinyl]phenyl}-5-nitrofuran-2-carboxamide]	99.2	125	109	–	–	–
O=C(Nc1ccccc1/C=C/c1n[nH]c2ccccc12)c1ccc(O)cc1 [Compound 77, (E)-4-hydroxy-N-{2-[2-(1H-indazol-3-yl)vinyl]phenyl}benzamide]	101	126	111	–	–	–
Cc1ccsc1C(=O)Nc1ccc(N2CCN(C)CC2)cc1/C=C/c1n[nH]c2ccccc12 [Compound 228, (E)-N-{2-[2-(1H-indazol-3-yl)vinyl]-4-(4-methylpiperazin-1-yl)phenyl}-3-methylthiophene-2-carboxamide]	100	–	–	58	114	–
Cn1cc(N)cc1C(=O)Nc1ccccc1/C=C/c1n[nH]c2ccccc12 [Compound 76, (E)-4-amino-N-{2-[2-(1H-indazol-3-yl)vinyl]phenyl}-1-methyl-1H-pyrrole-2-carboxamide trifluoroacetate]	99.2	126	109	–	–	–
Cc1ccsc1C(=O)Nc1cc(CN2CCC(N3CCOCC3)CC2)ccc1/C=C/c1n[nH]c2ccccc12 [Compound 296, (E)-N-{2-[2-(1H-indazol-3-yl)vinyl]-5-[4-(morpholin-4-yl)piperidin-1-ylmethyl]phenyl}-3-methylthiophene-2-carboxamide]	99.9	–	–	112	117	–
CCCS(=O)(=O)NCCOc1ccc(/C=C/c2n[nH]c3ccccc23)c(NC(=O)c2sccc2C)c1OC [Compound 338, (E)-N-{6-[2-(1H-indazol-3-yl)vinyl]-2-methoxy-3-[2-(propylsulfonylamino)ethoxy]phenyl}-3-methylthiophene-2-carboxamide]	99	–	–	–	–	inhibition at 1 µM [1, 4]: 122%; inhibition at 1 µM [3, 6]: 120%
CC(=O)c1ccc(C(=O)Nc2ccccc2/C=C/c2n[nH]c3ccccc23)s1 [Compound 43, (E)-5-acetyl-N-{2-[2-(1H-indazol-3-yl)vinyl]phenyl}thiophene-2-carboxamide]	96.3	112	113	–	–	–
O=C(Nc1ccccc1/C=C/c1n[nH]c2ccccc12)c1cccc(F)c1 [Compound 7, (E)-3-fluoro-N-{2-[2-(1H-indazol-3-yl)vinyl]phenyl}benzamide]	98.6	121	115	–	–	–
O=C(Nc1ccccc1/C=C/c1n[nH]c2ccccc12)C1CCCO1 (stereo not drawn) [Compound 32, (E)-N-{2-[2-(1H-indazol-3-yl)vinyl]phenyl}tetrahydrofuran-2-carboxamide]	98.6	126	113	–	–	–
Cc1ccsc1C(=O)Nc1cc(N(C)C)ccc1/C=C/c1n[nH]c2ccccc12 [Compound 105, (E)-N-{5-dimethylamino-2-[2-(1H-indazol-3-yl)vinyl]phenyl}-3-methylthiophene-2-carboxamide]	–	120	120	–	–	inhibition at 10 µM [2]: 94.8%
OCCOc1ccccc1/C=C/c1n[nH]c2ccccc12 [Compound 134, (E)-2-{2-[2-(1H-indazol-3-yl)vinyl]phenoxy}ethanol]	93.4	52.5	92.8	–	–	–
Cc1ccsc1C(=O)Nc1cc(CNC2CCNCC2)ccc1/C=C/c1n[nH]c2ccccc12 [Compound 264, (E)-N-{2-[2-(1H-indazol-3-yl)vinyl]-5-(piperidin-4-ylaminomethyl)phenyl}-3-methylthiophene-2-carboxamide]	102	–	–	58.5	111	–
COCCOc1ccc(/C=C/c2n[nH]c3ccccc23)c(NC(=O)c2sccc2C)c1 [Compound 275, (E)-N-{2-[2-(1H-indazol-3-yl)vinyl]-5-(2-methoxyethoxy)phenyl}-3-methylthiophene-2-carboxamide]	98.6	–	–	116	118	–
N#Cc1ccccc1/C=C/c1n[nH]c2ccccc12 [Compound 136, (E)-2-[2-(1H-indazol-3-yl)vinyl]benzonitrile]	85.3	38.4	87.7	–	–	–
Cn1cccc1C(=O)Nc1cc(N(CCO)CCN2CCOCC2)ccc1/C=C/c1n[nH]c2ccccc12 [Compound 308, (E)-{5-[N-(2-hydroxyethyl)-2-(morpholin-4-yl)ethylamino]-2-[2-(1H-indazol-3-yl)vinyl]phenyl}-1-methyl-1H-pyrrole-2-carboxamide]	–	–	–	–	–	cytostatic rate (%) KMS-11 (1 μmol/L) [1, 4]: 128.1%; inhibitory activity (%) at 10 μmol/L [2, 5]: 99.1%; cytostatic rate (%) H929 (1 μmol/L) [3, 6]: 118.3%
O=C(Nc1ccccc1/C=C/c1n[nH]c2ccccc12)c1ccccc1F [Compound 8, (E)-2-fluoro-N-{2-[2-(1H-indazol-3-yl)vinyl]phenyl}benzamide]	99.5	126	118	–	–	–
COCCN(C)C(=O)c1ccc(/C=C/c2n[nH]c3ccccc23)c(NC(=O)c2sccc2C)c1 [Compound 260, (E)-N-{2-[2-(1H-indazol-3-yl)vinyl]-5-[N-(2-methoxyethyl)-N-methylcarbamoyl]phenyl}-3-methylthiophene-2-carboxamide]	102	–	–	118	119	–
Cc1ccccc1C(=O)Nc1ccccc1/C=C/c1n[nH]c2ccccc12 [Compound 30, (E)-N-{2-[2-(1H-indazol-3-yl)vinyl]phenyl}-2-methylbenzamide]	97.6	115	115	–	–	–
O=C1c2ccccc2C(=O)N1c1ccccc1/C=C/c1n[nH]c2ccccc12 [Compound 159, (E)-2-{2-[2-(1H-indazol-3-yl)vinyl]phenyl}isoindole-1,3-dione]	99.9	75.5	104	–	–	–
COc1ccc(/C=C/c2n[nH]c3ccccc23)c(NC(=O)c2sccc2C)c1OC [Compound 261, (E)-N-{6-[2-(1H-indazol-3-yl)vinyl]-2,3-dimethoxyphenyl}-3-methylthiophene-2-carboxamide]	101	–	–	121	115	–
Cc1ccsc1C(=O)Nc1cc(C(=O)N2CCC(N(C)C)C2)ccc1/C=C/c1n[nH]c2ccccc12 (stereo not drawn) [Compound 295, (E)-N-{5-[3-(dimethylamino)pyrrolidin-1-ylcarbonyl]-2-[2-(1H-indazol-3-yl)vinyl]phenyl}-3-methylthiophene-2-carboxamide]	97.2	–	–	118	118	–
